Assay results from patent publication US20240254087A1, “SELECTIVE, PARTIAL, AND ARRESTIN-BIASED 5-HT2A AGONISTS WITH UTILITY IN VARIOUS DISORDERS” (Saint Joseph's University, priority 2021, published 2024).
Read-outs that look alike come from different tables or passages of the source.

Assays:
Set-up in all cases: expressed in transfected cells; host or cells: HEK293T, transient
5-HT2A [1] = target: T1, 5-HT2A (Homo sapiens, UniProt P28223); experiment: cell-based; conditions: for Emax: read-out: 5-HT2A β-arrestin Emax (% 5-HT), BRET, mean ± SEM
Procedure: (§1) After at least 18-24 hours, transfected cells were plated in poly-lysine coated 96-well white clear bottom cell culture plates in DMEM containing 1% dialyzed FBS at a density of 25-40,000 cells in 200 μL per well and incubated overnight. After approximately 20-24 hours, media was decanted and cells were washed with 60 μL of drug buffer (1×HBSS, 20 mM HEPES, pH 7.4), followed by 60 μL of drug buffer and pre-incubated in a humidified atmosphere at 37° C. before receiving drug stimulation. Drug stimulation was induced by adding 30 μL of a solution of drug (3X) diluted in McCorvy buffer (1×HBSS, 20 mM HEPES, pH 7.4, supplemented with 0.3% BSA fatty acid free, 0.03% ascorbic acid) and plates were incubated at the indicated time and temperature. Fifteen minutes before reading, 10 μL of the RLuc substrate, either coelenterazine h for β-Arrestin recruitment BRET^1 or coelenterazine 400a for Gq dissociation BRET^2 (Prolume/Nanolight, 5 μM final concentration) was addedper well. […] The BRET ratios of fluorescence/luminescence were calculated per well and were plotted as a function of drug concentration using Graphpad Prism 8 (Graphpad Software Inc., San Diego, CA).

5-HT2A [2] = target: T1, 5-HT2A; experiment: cell-based; conditions: for Emax: read-out: 5-HT2A Gq Emax (% 5-HT), BRET, mean ± SEM
Procedure: as §1

5-HT2B = 5-HT2B (Homo sapiens, UniProt P41595); experiment: BRET Gq dissociation, 5-HT2B; format: cell-based
Procedure: After at least 18-24 hours, transfected cells were plated in poly-lysine coated 96-well white clear bottom cell culture plates in DMEM containing 1% dialyzed FBS at a density of 25-40,000 cells in 200 μL per well and incubated overnight. After approximately 20-24 hours, media was decanted and cells were washed with 60 μL of drug buffer (1×HBSS, 20 mM HEPES, pH 7.4), followed by 60 μL of drug buffer and pre-incubated in a humidified atmosphere at 37° C. before receiving drug stimulation. Drug stimulation was induced by adding 30 μL of a solution of drug (3X) diluted in McCorvy buffer (1×HBSS, 20 mM HEPES, pH 7.4, supplemented with 0.3% BSA fatty acid free, 0.03% ascorbic acid) and plates were incubated at the indicated time and temperature. Fifteen minutes before reading, 10 μL of the RLuc substrate, either coelenterazine h for β-Arrestin recruitment BRET^1 or coelenterazine 400a for Gq dissociation BRET^2 (Prolume/Nanolight, 5 μM final concentration) was addedper well. Plates were read for luminescence at 485 nm and fluorescent eYFP emission at 530 nm for BRET^1 and at 400 nm and fluorescent GFP2 emission at 510 nm for BRET2 at 1 second per well using a Mithras LB940 (Berthold). The BRET ratios of fluorescence/luminescence were calculated per well and were plotted as a function of drug concentration using Graphpad Prism 8 (Graphpad Software Inc., San Diego, CA).

5-HT2C = target: T2, 5-HT2C (Homo sapiens, UniProt P28335); experiment: BRET Gq dissociation, 5-HT2C; format: cell-based; conditions: for Emax: read-out: 5-HT2C Gq Dissociation (BRET) EMAX ± SEM (%5-HT)
T2 sequence (P28335 33-458): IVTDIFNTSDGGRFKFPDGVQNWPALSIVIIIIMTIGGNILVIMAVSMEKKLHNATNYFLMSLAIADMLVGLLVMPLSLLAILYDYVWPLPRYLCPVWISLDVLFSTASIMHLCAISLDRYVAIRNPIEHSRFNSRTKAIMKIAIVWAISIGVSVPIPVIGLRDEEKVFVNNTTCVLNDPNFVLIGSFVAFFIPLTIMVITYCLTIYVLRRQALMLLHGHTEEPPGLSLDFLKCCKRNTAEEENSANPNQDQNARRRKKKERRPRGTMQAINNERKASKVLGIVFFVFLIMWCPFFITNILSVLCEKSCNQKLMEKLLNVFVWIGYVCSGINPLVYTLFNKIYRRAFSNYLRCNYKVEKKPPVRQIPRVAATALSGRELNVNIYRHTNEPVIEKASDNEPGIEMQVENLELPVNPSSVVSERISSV
Procedure: as §1

[3] = read-out: 5-HT2C Gq Dissociation (BRET) pEC50 ± SEM (converted)
[4] = BRET, mean ± SEM, read-out: 5-HT2A β-arrestin recruitment pEC50 (converted)
[5] = BRET, mean ± SEM, read-out: 5-HT2A Gq dissociation pEC50 (converted)

T1 sequence (P28223 whole entry): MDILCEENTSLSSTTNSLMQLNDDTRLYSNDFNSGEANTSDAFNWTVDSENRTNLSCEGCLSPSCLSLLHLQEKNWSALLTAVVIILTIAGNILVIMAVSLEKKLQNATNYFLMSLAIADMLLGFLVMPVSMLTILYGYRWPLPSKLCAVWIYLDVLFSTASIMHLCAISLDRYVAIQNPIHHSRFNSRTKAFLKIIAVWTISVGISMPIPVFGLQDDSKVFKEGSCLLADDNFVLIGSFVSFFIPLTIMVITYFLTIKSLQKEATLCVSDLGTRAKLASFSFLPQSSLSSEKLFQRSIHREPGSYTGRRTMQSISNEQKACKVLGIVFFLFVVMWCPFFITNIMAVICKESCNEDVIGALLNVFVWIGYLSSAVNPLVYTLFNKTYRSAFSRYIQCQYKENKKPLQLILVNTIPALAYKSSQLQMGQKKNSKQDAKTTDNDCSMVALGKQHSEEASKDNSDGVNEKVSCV
5-HT2B, sequence (P41595 whole entry): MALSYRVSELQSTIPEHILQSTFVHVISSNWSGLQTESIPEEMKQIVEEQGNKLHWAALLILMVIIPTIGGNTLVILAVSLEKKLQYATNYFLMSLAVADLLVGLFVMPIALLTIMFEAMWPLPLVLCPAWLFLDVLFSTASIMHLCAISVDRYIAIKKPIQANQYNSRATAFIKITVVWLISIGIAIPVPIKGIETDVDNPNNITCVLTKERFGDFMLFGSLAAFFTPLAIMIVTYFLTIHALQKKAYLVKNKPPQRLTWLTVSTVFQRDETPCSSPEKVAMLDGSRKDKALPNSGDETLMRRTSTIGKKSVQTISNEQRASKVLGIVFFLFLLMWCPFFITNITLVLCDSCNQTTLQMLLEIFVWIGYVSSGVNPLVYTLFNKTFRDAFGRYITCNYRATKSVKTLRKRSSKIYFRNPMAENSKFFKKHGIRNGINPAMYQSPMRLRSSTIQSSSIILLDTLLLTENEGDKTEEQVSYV

Compound	Emax (5-HT2A [1])	Emax (5-HT2A [2])	5-HT2B Gq Dissociation (BRET) EMAX ± SEM (%5-HT) (5-HT2B)	5-HT2B Gq Dissociation (BRET) pEC50 ± SEM (5-HT2B)	Emax (5-HT2C)	EC50 (5-HT2C; [3])	EC50 (5-HT2A [1]; [4])	EC50 (5-HT2A [2])	EC50 (5-HT2C)	EC50 (5-HT2A [1])	EC50 (5-HT2A [2]; [5])	5-HT2A β-arrestin Emax (% 5-HT) (5-HT2A [1]; BRET, mean ± SEM)	5-HT2A β-arrestin recruitment pEC50 (5-HT2A [1]; BRET, mean ± SEM)	5-HT2A Gq Emax (% 5-HT) (5-HT2A [2]; BRET, mean ± SEM)	5-HT2A Gq dissociation pEC50 (5-HT2A [2]; BRET, mean ± SEM)	Emax (5-HT2B; read-out: 5-HT2B Gq Dissociation (BRET) EMAX ± SEM (%5-HT))	EC50 (5-HT2B; read-out: 5-HT2B Gq Dissociation (BRET) pEC50 ± SEM (converted))
COc1cc(CCNCc2cccc3ccccc23)c(OC)cc1C [25D-N1-Nap (27)]	75.5 ± 2.4%	34.3 ± 2.9%	–	–	–	–	–	–	–	–	–	–	–	–	–	–	–
COc1cc(CCNCc2cccc3ccccc23)cc(OC)c1Br [(31), 2-(4-bromo-3,5-dimethoxyphenyl)-N-[(naphthalen-1-yl)-methyl]ethan-1-amine]	50.8 ± 3.4%	20.3 ± 1.9%	No activity	No activity	80.2 ± 2.2%	41.7 nM	35.5 nM	170 nM	–	–	–	–	–	–	–	–	–
COc1cc(Cl)ccc1CCNCc1cccc2ccccc12 [(34)]	83.6 ± 3.6%	25.2 ± 2%	No activity	No activity	75.9 ± 1.7%	38 nM	–	–	–	–	–	–	–	–	–	–	–
COc1cc(Br)c(CCNCc2cccc(C)c2O)cc1OC [(43), 2-(((2-bromo-4,5-dimethoxyphenethyl)-amino)-methyl)-6-methylphenol]	91.7 ± 3.4%	65.4 ± 1.4%	No activity	No activity	75.4 ± 2%	–	–	6.46 nM	20.9 nM	6.31 nM	–	–	–	–	–	–	–
COc1cc(OC)c(OC)cc1CCNCc1cccc(Br)c1O [(48)]	85 ± 4.8%	53.6 ± 1.7%	No activity	No activity	69.2 ± 6.1%	174 nM	8.13 nM	–	–	–	20.4 nM	–	–	–	–	–	–
COc1cc(Br)c(Br)c(OC)c1CCNCc1cccc(C)c1O [(45)]	77.5 ± 6%	70.5 ± 2%	No activity	No activity	81 ± 2.1%	1.51 nM	1.32 nM	–	–	–	2.24 nM	–	–	–	–	–	–
Brc1c2c(c(CCNCc3cccc4ccccc34)c3c1OCC3)OCC2 [(29)]	62.5 ± 2.3%	31.8 ± 1.4%	No activity	No activity	78.1 ± 2.1%	4.17 nM	1.02 nM	–	–	–	8.71 nM	–	–	–	–	–	–
COc1cc(OC)c(OC)cc1CCNCc1cccc(F)c1F [(65)]	101 ± 2.7%	76.5 ± 2.3%	No activity	No activity	83.3 ± 6.3%	200 nM	170 nM	–	–	–	64.6 nM	–	–	–	–	–	–
COc1cc(OC)c(OC)cc1CCNCc1cccc2cnccc12 [(56)]	75.8 ± 8.3%	64.1 ± 1.5%	No activity	No activity	80.9 ± 3.4%	126 nM	17.4 nM	–	–	–	26.3 nM	–	–	–	–	–	–
COc1cc(Br)cc(OC)c1CCNCc1cccc(C)c1O [(42)]	78.9 ± 3.7%	69.2 ± 1.5%	No activity	No activity	78.1 ± 1.6%	1.51 nM	0.513 nM	–	–	–	1.1 nM	–	–	–	–	–	–
COc1cc(CCN)c(OC)cc1Br [Compound 2C-B, reference compound]	–	–	97.4 ± 1.4 %5-HT	7.90 ± 0.04	–	–	–	–	–	–	–	84.0 ± 1.0 % 5-HT	8.62 ± 0.04	100.8 ± 0.9 % 5-HT	8.92 ± 0.03	–	–
COc1cc(OC)c(OC)cc1CCNCc1ccccc1-c1ccco1 [(58)]	112 ± 6.2%	51.9 ± 2.2%	–	–	94 ± 4%	14.1 nM	56.2 nM	–	–	–	50.1 nM	–	–	–	–	37.6 ± 2%	3.09 nM
COc1cc(OC)c(OC)cc1CCNCc1ccccc1Oc1ccccc1 [(60)]	117 ± 14.6%	63.3 ± 3.5%	No activity	No activity	113 ± 11.6%	1700 nM	–	–	–	–	–	–	–	–	–	–	–
COc1cc(CCNC2CCc3cccc(O)c32)c(OC)cc1C (centres unmarked) [(84)]	113 ± 4.3%	71.9 ± 4.9%	–	–	–	–	3.47 nM	–	–	–	2.69 nM	–	–	–	–	–	–
COc1cc(CCNCc2ccccc2-c2ccccc2)c(OC)cc1C [25D-NBPh (28)]	107 ± 4.7%	23.2 ± 4.8%	–	–	–	–	–	–	–	–	–	–	–	–	–	–	–
COc1cc(CCNC2Cc3ccccc3C2)c(OC)cc1C [(85)]	70.9 ± 5.1%	53.5 ± 4.3%	–	–	–	–	5.13 nM	–	–	–	17.8 nM	–	–	–	–	–	–
CN(C)CCc1c[nH]c2ccccc12 [DMT, reference compound]	–	–	–	–	–	–	–	–	–	–	–	64 ± 3 % 5-HT	7.12 ± 0.13	76 ± 2 % 5-HT	7.17 ± 0.07	–	–
COc1cc(CCNC2CCc3ccccc32)c(OC)cc1C (centres unmarked) [(83)]	112 ± 11.5%	50.7 ± 7%	–	–	–	–	8.13 nM	–	–	–	6.31 nM	–	–	–	–	–	–
